Data set [1] in a line: in vivo. Particulars: Sprague-Dawley, rat, iv, 1 mg/kg.
The nature of data set [2]: in vivo. The settings on record: Sprague-Dawley, rat, po, 10 mg/kg.
The nature of data set [3]: in vivo. The settings on record: Sprague-Dawley, rat, po, 10 mg/kg. The source holds these as a separate data set.
The nature of data set [4]: in vivo. Particulars: Sprague-Dawley, rat, iv, 1 mg/kg. The source holds these as a separate data set.
Data set [5] can be described thus: in vivo. The settings on record: Sprague-Dawley, rat, iv, 1 mg/kg. This is another data set of the same source.
Data set [6] in a line: in vivo. The settings on record: Sprague-Dawley, rat, po, 10 mg/kg. The source holds these as a separate data set.
Data set [7] can be described thus: in vivo. The settings on record: Sprague-Dawley, rat, po, 10 mg/kg. This is another data set of the same source.
Data set [8] in a line: in vivo. The settings on record: Sprague-Dawley, rat, iv, 1 mg/kg. This is another data set of the same source.
The nature of data set [9]: in vivo. Particulars: Sprague-Dawley, rat, po, 10 mg/kg. The source holds these as a separate data set.
A short description of data set [10]: in vivo. The settings on record: Sprague-Dawley, rat, po, 10 mg/kg. This is another data set of the same source.
The nature of data set [11]: in vivo. The settings on record: Sprague-Dawley, rat, iv, 1 mg/kg. This is another data set of the same source.
Data set [12] is described as follows: in vivo. Particulars: Sprague-Dawley, rat, iv, 1 mg/kg. The source holds these as a separate data set.
Data set [13] in a line: in vivo. The settings on record: Sprague-Dawley, rat, po, 10 mg/kg. The source holds these as a separate data set.
Data set [14] can be described thus: in vivo. The settings on record: Sprague-Dawley, rat, po, 10 mg/kg. This is another data set of the same source.
The nature of data set [15]: in vivo. Particulars: Sprague-Dawley, rat, iv, 1 mg/kg. The source holds these as a separate data set.

A word on the MRT last: it is the average time that molecules of a dose stay in the body. What is called AUC(0-inf) is the area under the concentration-time curve extrapolated to infinity. A high value points to high exposure. Broadly, the Tmax is the time at which the peak concentration occurs. As a reminder, the AUC(0-t) is exposure summed from dosing to a finite time, without extrapolation to infinity. As a reminder, the half-life is how long it takes for the measured level to halve. A lower half-life goes with fast loss. Broadly, the CL/F is clearance divided by bioavailability, as obtained after extravascular dosing. Broadly, the bioavailability is dose-corrected exposure relative to a reference, in per cent. A high value points to good availability. A word on the clearance: it is the rate of elimination divided by the concentration. A word on the Cmax: it is the highest concentration seen after dosing. In “in vivo [1]”, `CC#CC(=O)N1CCC(c2cnn3c(C(N)=O)c(-c4ccc(Oc5ccccc5)cc4)[nH]c23)CC1` showed an MRT last at 12 h of 2.19 h. Moreover, the total exposure AUC(0-inf) at 24 h in the data set “in vivo [2]” was found to be 0.213 µg·h/mL. Besides, the Tmax at 24 h in “in vivo [3]” was 0.83 h. Moreover, in “in vivo [4]”, the Tmax at 12 h amounted to 1.98 min. The molecule further returned an AUC(0-t) at 12 h in the data set “in vivo [5]” of 0.18 µg·h/mL. Also, in the data set “in vivo [6]”, the half-life at 24 h was 5.98 h. Also, the CL/F at 24 h in “in vivo [7]” is 47.1 L/h/kg. In “in vivo [8]”, this molecule registered an AUC(0-inf) at 12 h of 0.198 µg·h/mL. In addition, the bioavailability at 24 h in “in vivo [9]” amounted to 10.8%. In addition, the area under the curve AUC(0-t) at 24 h in “in vivo [10]” was found to be 0.167 µg·h/mL. The molecule also showed a clearance at 12 h in the data set “in vivo [11]” of 5.1 L/h/kg. The molecule further showed a Cmax at 12 h in the data set “in vivo [12]” of 0.537 µg/mL. For the same molecule, the MRT last at 24 h in “in vivo [13]” was 10.2 h. In “in vivo [14]”, this molecule showed a maximum concentration (Cmax) at 24 h of 0.016 µg/mL. The molecule also gave a half-life at 12 h in the data set “in vivo [15]” of 2.35 h.

These data come from ChEMBL document CHEMBL4842353, “Structure-activity relationship investigation for imidazopyrazole-3-carboxamide derivatives as novel selective inhibitors of Bruton's tyrosine kinase” (Eur J Med Chem, 2021).
